# Laboratory results: patent publication US6992079B2, “Substituted 11-phenyl-dibenzazepine compounds useful for the treatment or prevention of diseases characterized by abnormal cell proliferation” (President Fellows of Harvard College, priority 1997, dated 2006)
# pIC50: −log10 of the molar value. Where two headings read alike, the source gives them in different places.
# How the values were obtained:
# [1] = system: NIH 3T3 mouse fibroblast cells; test: Mitogenic assay (mitogen-induced cell proliferation); type: cell-based
# [2] = system: SU.86.86 pancreatic adenocarcinoma; test: Mouse xenograft tumor growth; type: in vivo, nude mice; conditions: SU.86.86 pancreatic adenocarcinoma mouse xenograft
# [3] = system: panel of human cancer cells; test: In vitro screening, SRB, panel of 60 human cancer cell lines; type: cell-based
# ROP-62 = type: cell-based; conditions: 48 h
# NCI-H226 = type: cell-based; conditions: NCI-H226, 48 h
# NCI-H460 = type: cell-based; conditions: NCI-H460, 48 h
# HCT-116 = test: In-Vitro Testing SRB panel: Colon Cancer; type: cell-based; conditions: HCT-116, 48 h
# HT29 = test: In-Vitro Testing SRB panel: Colon Cancer; type: cell-based
# KM12 = test: In-Vitro Testing SRB panel: Colon Cancer; type: cell-based; conditions: KM12, 48 h
# SW-620 = test: In-Vitro Testing SRB panel: Colon Cancer; type: cell-based; conditions: SW-620, 48 h
# SF-295 = test: In-Vitro Testing SRB panel: CNS Cancer; type: cell-based; conditions: SF-295, 48 h
# OVCAR-8 = test: In-Vitro Testing SRB panel: Ovarian Cancer; type: cell-based; conditions: OVCAR-8, 48 h
# SK-OV-3 = test: In-Vitro Testing SRB panel: Ovarian Cancer; type: cell-based; conditions: SK-OV-3, 48 h
# A498 = test: In-Vitro Testing SRB panel: Renal Cancer; type: cell-based; conditions: A498, 48 h
# RXF 393 = test: In-Vitro Testing SRB panel: Renal Cancer; type: cell-based; conditions: RXF 393, 48 h
# NCI/ADR-RES = test: In-Vitro Testing SRB panel: Breast Cancer; type: cell-based; conditions: 48 h
# HS 578T = test: In-Vitro Testing SRB panel: Breast Cancer; type: cell-based; conditions: 48 h
# MDA-N = test: In-Vitro Testing SRB panel: Breast Cancer; type: cell-based; conditions: 48 h
# ERVX = conditions: 48 h
# [4] = Homo sapiens, read-out: LC50 (the source's name)
compound,measurement,setting,value
"O=C(c1ccc([N+](=O)[O-])cc1)N1Cc2ccccc2C(c2ccccc2Cl)c2ccccc21 (stereo not drawn) [Compound 28, N-(4′-Nitrobenzoyl)-11-(2′-chlorophenyl)-5,6-dihydro-11H-dibenz[b,e]azepine]",pIC50,[1]; NIH3T3,6.30 to 7.40
same,inhibition at 10 µM,"[1]; NIH3T3, 10 μM compound",99%
same,tumor growth,[2],significantly inhibited tumor growth
same,activity against the human cell panel,[3],exhibited activity against the human cell panel
same,GI50,ROP-62; Homo sapiens,13.1 µM
same,CC50,"ROP-62; Homo sapiens, ROP-62, read-out: LC50 (the source's name)",> 100 µM
same,TGI,ROP-62; ROP-62,>1.00E−04 Molar
same,Percent Growth,"ROP-62; ROP-62, log10 conc −4.0 Molar",38%
same,Percent Growth,"ROP-62; ROP-62, log10 conc −5.0 Molar",52%
same,Percent Growth,"ROP-62; ROP-62, log10 conc −6.0 Molar",60%
same,Percent Growth,"ROP-62; ROP-62, log10 conc −7.0 Molar",89%
same,Percent Growth,"ROP-62; ROP-62, log10 conc −8.0 Molar",91%
same,GI50,NCI-H226; Homo sapiens,7.96 µM
same,CC50,NCI-H226; [4],> 100 µM
same,TGI,NCI-H226,>1.00E−04 Molar
same,Percent Growth,NCI-H226; log10 conc −4.0 Molar,33%
same,Percent Growth,NCI-H226; log10 conc −5.0 Molar,48%
same,Percent Growth,NCI-H226; log10 conc −6.0 Molar,66%
same,Percent Growth,NCI-H226; log10 conc −7.0 Molar,83%
same,Percent Growth,NCI-H226; log10 conc −8.0 Molar,90%
same,GI50,NCI-H460; Homo sapiens,3.65 µM
same,CC50,NCI-H460; [4],> 100 µM
same,TGI,NCI-H460,>1.00E−04 Molar
same,Percent Growth,NCI-H460; log10 conc −4.0 Molar,15%
same,Percent Growth,NCI-H460; log10 conc −5.0 Molar,12%
same,Percent Growth,NCI-H460; log10 conc −6.0 Molar,18%
same,Percent Growth,NCI-H460; log10 conc −7.0 Molar,92%
same,Percent Growth,NCI-H460; log10 conc −8.0 Molar,97%
same,TGI,HCT-116,>1.00E−04 Molar
same,Percent Growth,HCT-116; log10 conc −4.0 Molar,11%
same,Percent Growth,HCT-116; log10 conc −5.0 Molar,19%
same,Percent Growth,HCT-116; log10 conc −6.0 Molar,27%
same,Percent Growth,HCT-116; log10 conc −7.0 Molar,93%
same,Percent Growth,HCT-116; log10 conc −8.0 Molar,103%
same,GI50,HCT-116; Homo sapiens,0.447 µM
same,CC50,HCT-116; [4],> 100 µM
same,TGI,"HT29; HT29, 48 h",>1.00E−04 Molar
same,Percent Growth,"HT29; HT29, log10 conc −4.0 Molar, 48 h",27%
same,Percent Growth,"HT29; HT29, log10 conc −5.0 Molar, 48 h",27%
same,Percent Growth,"HT29; HT29, log10 conc −6.0 Molar, 48 h",38%
same,Percent Growth,"HT29; HT29, log10 conc −7.0 Molar, 48 h",78%
same,Percent Growth,"HT29; HT29, log10 conc −8.0 Molar, 48 h",86%
same,GI50,"HT29; Homo sapiens, HT-29, 48 h",0.505 µM
same,CC50,"HT29; Homo sapiens, HT-29, HT29, 48 h, read-out: LC50 (the source's name)",> 100 µM
same,GI50,KM12; Homo sapiens,0.765 µM
same,CC50,KM12; [4],> 100 µM
same,TGI,KM12,>1.00E−04 Molar
same,Percent Growth,KM12; log10 conc −4.0 Molar,15%
same,Percent Growth,KM12; log10 conc −5.0 Molar,26%
same,Percent Growth,KM12; log10 conc −6.0 Molar,45%
same,Percent Growth,KM12; log10 conc −7.0 Molar,84%
same,Percent Growth,KM12; log10 conc −8.0 Molar,94%
same,GI50,SW-620; Homo sapiens,7.13 µM
same,CC50,SW-620; [4],> 100 µM
same,TGI,SW-620,>1.00E−04 Molar
same,Percent Growth,SW-620; log10 conc −4.0 Molar,42%
same,Percent Growth,SW-620; log10 conc −5.0 Molar,47%
same,Percent Growth,SW-620; log10 conc −6.0 Molar,65%
same,Percent Growth,SW-620; log10 conc −7.0 Molar,94%
same,Percent Growth,SW-620; log10 conc −8.0 Molar,112%
same,GI50,SF-295; Homo sapiens,0.442 µM
same,CC50,SF-295; [4],> 100 µM
same,TGI,SF-295,>1.00E−04 Molar
same,Percent Growth,SF-295; log10 conc −4.0 Molar,10%
same,Percent Growth,SF-295; log10 conc −5.0 Molar,20%
same,Percent Growth,SF-295; log10 conc −6.0 Molar,36%
same,Percent Growth,SF-295; log10 conc −7.0 Molar,75%
same,Percent Growth,SF-295; log10 conc −8.0 Molar,88%
same,GI50,OVCAR-8; Homo sapiens,2.86 µM
same,CC50,OVCAR-8; [4],> 100 µM
same,TGI,OVCAR-8,>1.00E−04 Molar
same,Percent Growth,OVCAR-8; log10 conc −4.0 Molar,28%
same,Percent Growth,OVCAR-8; log10 conc −5.0 Molar,33%
same,Percent Growth,OVCAR-8; log10 conc −6.0 Molar,64%
same,Percent Growth,OVCAR-8; log10 conc −7.0 Molar,102%
same,Percent Growth,OVCAR-8; log10 conc −8.0 Molar,105%
same,GI50,SK-OV-3; Homo sapiens,8.31 µM
same,CC50,SK-OV-3; [4],> 100 µM
same,TGI,SK-OV-3,>1.00E−04 Molar
same,Percent Growth,SK-OV-3; log10 conc −4.0 Molar,36%
same,Percent Growth,SK-OV-3; log10 conc −5.0 Molar,47%
same,Percent Growth,SK-OV-3; log10 conc −6.0 Molar,79%
same,Percent Growth,SK-OV-3; log10 conc −7.0 Molar,97%
same,Percent Growth,SK-OV-3; log10 conc −8.0 Molar,97%
same,TGI,A498,>1.00E−04 Molar
same,Percent Growth,A498; log10 conc −4.0 Molar,15%
same,Percent Growth,A498; log10 conc −5.0 Molar,57%
same,Percent Growth,A498; log10 conc −6.0 Molar,81%
same,Percent Growth,A498; log10 conc −7.0 Molar,93%
same,Percent Growth,A498; log10 conc −8.0 Molar,97%
same,GI50,A498; Homo sapiens,14.4 µM
same,CC50,A498; [4],> 100 µM
same,GI50,RXF 393; Homo sapiens,1.39 µM
same,CC50,RXF 393; [4],> 100 µM
same,TGI,RXF 393,7.75E−06 Molar
same,Percent Growth,RXF 393; log10 conc −4.0 Molar,−12%
same,Percent Growth,RXF 393; log10 conc −5.0 Molar,−7%
same,Percent Growth,RXF 393; log10 conc −6.0 Molar,60%
same,Percent Growth,RXF 393; log10 conc −7.0 Molar,98%
same,Percent Growth,RXF 393; log10 conc −8.0 Molar,99%
same,TGI,NCI/ADR-RES,>1.00E−04 Molar
same,GI50,NCI/ADR-RES; Homo sapiens,3.22 µM
same,CC50,NCI/ADR-RES; [4],> 100 µM
same,Percent Growth,NCI/ADR-RES; log10 conc −4.0 Molar,20%
same,Percent Growth,NCI/ADR-RES; log10 conc −5.0 Molar,27%
same,Percent Growth,NCI/ADR-RES; log10 conc −6.0 Molar,74%
same,Percent Growth,NCI/ADR-RES; log10 conc −7.0 Molar,105%
same,Percent Growth,NCI/ADR-RES; log10 conc −8.0 Molar,97%
same,TGI,HS 578T; HS 578T,>1.00E−04 Molar
same,Percent Growth,"HS 578T; HS 578T, log10 conc −4.0 Molar",42%
same,Percent Growth,"HS 578T; HS 578T, log10 conc −5.0 Molar",121%
same,Percent Growth,"HS 578T; HS 578T, log10 conc −6.0 Molar",125%
same,Percent Growth,"HS 578T; HS 578T, log10 conc −7.0 Molar",187%
same,Percent Growth,"HS 578T; HS 578T, log10 conc −8.0 Molar",193%
same,GI50,"HS 578T; Homo sapiens, Hs-578T",80.2 µM
same,CC50,"HS 578T; Homo sapiens, HS 578T, read-out: LC50 (the source's name)",> 100 µM
same,TGI,MDA-N,>1.00E−04 Molar
same,GI50,MDA-N; Homo sapiens,1.17 µM
same,CC50,MDA-N; [4],> 100 µM
same,Percent Growth,MDA-N; log10 conc −4.0 Molar,7%
same,Percent Growth,MDA-N; log10 conc −5.0 Molar,23%
same,Percent Growth,MDA-N; log10 conc −6.0 Molar,52%
same,Percent Growth,MDA-N; log10 conc −7.0 Molar,94%
same,Percent Growth,MDA-N; log10 conc −8.0 Molar,99%
same,TGI,ERVX; ERVX,>1.00E−04 Molar
same,Percent Growth,"ERVX; ERVX, log10 conc −4.0 Molar",23%
same,Percent Growth,"ERVX; ERVX, log10 conc −5.0 Molar",24%
same,Percent Growth,"ERVX; ERVX, log10 conc −6.0 Molar",51%
same,Percent Growth,"ERVX; ERVX, log10 conc −7.0 Molar",93%
same,Percent Growth,"ERVX; ERVX, log10 conc −8.0 Molar",85%
same,GI50,ERVX; Homo sapiens,1.13 µM
same,CC50,"ERVX; Homo sapiens, read-out: LC50",> 100 µM
